# Measurements: PubChem BioAssay AID1963826 (Molecular Pharmacology Branch, DTP, NCI, 2024)
# Test system: 926638-142-R-J1-PDC complex spheroid viability
# Assay: Anticancer human tumor 926638-142-R-J1-PDC patient-derived endometrial carcinoma cell line growth inhibition [POLQ]
# Settings: for IC50: curve of first compound; for viability, T/C: stronger effect = lower value
# Outline: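 Patient-derived tumour cells were co-cultured with HUVEC and mesenchymal stem cells as multicellular spheroids at 37 °C. They were treated with POLQ inhibitors (novobiocin, ART-558, RP6685) alone or combined with other agents. Top concentrations were at or near clinical Cmax (otherwise 10 microM; SN-38 at 1 microM), decreasing in half-log steps.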
# [1] = second compound 0.0316 µM, first compound 0.0316 µM
# [2] = second compound 0.0316 µM, first compound 0.1 µM
# [3] = second compound 0.0316 µM, first compound 0.316 µM
# [4] = second compound 0.0316 µM, first compound 1 µM
# [5] = second compound 0.0316 µM, first compound 3.16 µM
# [6] = second compound 0.0316 µM, first compound 10 µM
# [7] = second compound 0.1 µM, first compound 0.0316 µM
# [8] = second compound 0.1 µM, first compound 0.1 µM
# [9] = second compound 0.1 µM, first compound 0.316 µM
# [10] = second compound 0.1 µM, first compound 1 µM
# [11] = second compound 0.1 µM, first compound 3.16 µM
# [12] = second compound 0.1 µM, first compound 10 µM
# [13] = second compound 0.316 µM, first compound 0.0316 µM
# [14] = second compound 0.316 µM, first compound 0.1 µM
# [15] = second compound 0.316 µM, first compound 0.316 µM
# [16] = second compound 0.316 µM, first compound 1 µM
# [17] = second compound 0.316 µM, first compound 3.16 µM
# [18] = second compound 0.316 µM, first compound 10 µM
# [19] = second compound 1 µM, first compound 0.0316 µM
# [20] = second compound 1 µM, first compound 0.1 µM
# [21] = second compound 1 µM, first compound 0.316 µM
# [22] = second compound 1 µM, first compound 1 µM
# [23] = second compound 1 µM, first compound 3.16 µM
# [24] = second compound 1 µM, first compound 10 µM
# [25] = second compound 3.16 µM, first compound 0.0316 µM
# [26] = second compound 3.16 µM, first compound 0.1 µM
# [27] = second compound 3.16 µM, first compound 0.316 µM
# [28] = second compound 3.16 µM, first compound 1 µM
# [29] = second compound 3.16 µM, first compound 3.16 µM
# [30] = second compound 3.16 µM, first compound 10 µM
# [31] = second compound 10 µM, first compound 0.0316 µM
# [32] = second compound 10 µM, first compound 0.1 µM
# [33] = second compound 10 µM, first compound 0.316 µM
# [34] = second compound 10 µM, first compound 1 µM
# [35] = second compound 10 µM, first compound 3.16 µM
# [36] = second compound 10 µM, first compound 10 µM
# 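Further: spheroids exposed to drugs for one week before readout.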
# 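Wherever viability, T/C is given: percent viability relative to DMSO vehicle control wells set as 100%.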
compound,measurement,setting,value
C#Cc1c(F)ccc2cc(O)cc(-c3ncc4c(N5CC6CCC(C5)N6)nc(OCC56CCCN5CC(F)C6)nc4c3F)c12 (stereo unspecified) + Cc1cccc(N(C)C(=O)C2C(O)CCN2c2nc(C)cc(C(F)(F)F)c2C#N)c1,IC50,second compound 0.0316 µM,> 10 µM
same,IC50,second compound 0.1 µM,> 10 µM
same,IC50,second compound 0.316 µM,> 10 µM
same,IC50,second compound 1 µM,> 10 µM
same,IC50,second compound 3.16 µM,> 10 µM
same,IC50,second compound 10 µM,> 10 µM
same,"viability, T/C",[1],90.9%
same,"viability, T/C",[2],76.7%
same,"viability, T/C",[3],69.9%
same,"viability, T/C",[4],63.8%
same,"viability, T/C",[5],58.3%
same,"viability, T/C",[6],56.9%
same,"viability, T/C",[7],87.2%
same,"viability, T/C",[8],96.2%
same,"viability, T/C",[9],84.6%
same,"viability, T/C",[10],71.9%
same,"viability, T/C",[11],60.5%
same,"viability, T/C",[12],63.9%
same,"viability, T/C",[13],86.2%
same,"viability, T/C",[14],75.1%
same,"viability, T/C",[15],78.2%
same,"viability, T/C",[16],71.8%
same,"viability, T/C",[17],54%
same,"viability, T/C",[18],61.7%
same,"viability, T/C",[19],95.2%
same,"viability, T/C",[20],76%
same,"viability, T/C",[21],66.9%
same,"viability, T/C",[22],76.2%
same,"viability, T/C",[23],70.9%
same,"viability, T/C",[24],52.5%
same,"viability, T/C",[25],81.1%
same,"viability, T/C",[26],84.3%
same,"viability, T/C",[27],89.2%
same,"viability, T/C",[28],58.5%
same,"viability, T/C",[29],60.1%
same,"viability, T/C",[30],53.5%
same,"viability, T/C",[31],84.8%
same,"viability, T/C",[32],79%
same,"viability, T/C",[33],67.2%
same,"viability, T/C",[34],71.8%
same,"viability, T/C",[35],58.4%
same,"viability, T/C",[36],66.5%
CC1COCCN1c1cc(C2(O)CC3CCC(C2)O3)c2cnn(-c3ccn[nH]3)c2n1 (stereo unspecified) + Cc1cccc(N(C)C(=O)C2C(O)CCN2c2nc(C)cc(C(F)(F)F)c2C#N)c1,IC50,second compound 0.0316 µM,0.173 µM
same,IC50,second compound 0.1 µM,0.22 µM
same,IC50,second compound 0.316 µM,0.194 µM
same,IC50,second compound 1 µM,0.201 µM
same,IC50,second compound 3.16 µM,0.143 µM
same,IC50,second compound 10 µM,0.198 µM
same,"viability, T/C",[1],102%
same,"viability, T/C",[2],64.7%
same,"viability, T/C",[3],34.5%
same,"viability, T/C",[4],13.3%
same,"viability, T/C",[5],8.43%
same,"viability, T/C",[6],2.27%
same,"viability, T/C",[7],100%
same,"viability, T/C",[8],79.8%
same,"viability, T/C",[9],35.8%
same,"viability, T/C",[10],12.2%
same,"viability, T/C",[11],6.79%
same,"viability, T/C",[12],1.49%
same,"viability, T/C",[13],88.7%
same,"viability, T/C",[14],67.5%
same,"viability, T/C",[15],37.9%
same,"viability, T/C",[16],11.6%
same,"viability, T/C",[17],9.91%
same,"viability, T/C",[18],1.44%
same,"viability, T/C",[19],85.7%
same,"viability, T/C",[20],71%
same,"viability, T/C",[21],35.8%
same,"viability, T/C",[22],14%
same,"viability, T/C",[23],7.71%
same,"viability, T/C",[24],1.6%
same,"viability, T/C",[25],85.9%
same,"viability, T/C",[26],61%
same,"viability, T/C",[27],26.1%
same,"viability, T/C",[28],13.9%
same,"viability, T/C",[29],7.14%
same,"viability, T/C",[30],1.53%
same,"viability, T/C",[31],97.7%
same,"viability, T/C",[32],72.9%
same,"viability, T/C",[33],33.5%
same,"viability, T/C",[34],13.2%
same,"viability, T/C",[35],6.57%
same,"viability, T/C",[36],1.3%
O=C(Nc1ccc(O)c(NS(=O)(=O)c2ccc(F)cc2)c1)c1ccc(-c2ccccc2)cc1 + Cc1cccc(N(C)C(=O)C2C(O)CCN2c2nc(C)cc(C(F)(F)F)c2C#N)c1,IC50,second compound 0.0316 µM,> 10 µM
same,IC50,second compound 0.1 µM,> 10 µM
same,IC50,second compound 0.316 µM,> 10 µM
same,IC50,second compound 1 µM,> 10 µM
same,IC50,second compound 3.16 µM,> 10 µM
same,IC50,second compound 10 µM,> 10 µM
same,"viability, T/C",[1],93.9%
same,"viability, T/C",[2],93.2%
same,"viability, T/C",[3],91.6%
same,"viability, T/C",[4],91%
same,"viability, T/C",[5],90.5%
same,"viability, T/C",[6],62.5%
same,"viability, T/C",[7],104%
same,"viability, T/C",[8],78.6%
same,"viability, T/C",[9],81.2%
same,"viability, T/C",[10],94%
same,"viability, T/C",[11],90.1%
same,"viability, T/C",[12],62.5%
same,"viability, T/C",[13],94.3%
same,"viability, T/C",[14],105%
same,"viability, T/C",[15],86.6%
same,"viability, T/C",[16],87.8%
same,"viability, T/C",[17],94.5%
same,"viability, T/C",[18],67.2%
same,"viability, T/C",[19],90.3%
same,"viability, T/C",[20],94.8%
same,"viability, T/C",[21],88.1%
same,"viability, T/C",[22],96.9%
same,"viability, T/C",[23],85.6%
same,"viability, T/C",[24],73.1%
same,"viability, T/C",[25],79.6%
same,"viability, T/C",[26],91.5%
same,"viability, T/C",[27],82.1%
same,"viability, T/C",[28],97.6%
same,"viability, T/C",[29],95.7%
same,"viability, T/C",[30],68.5%
same,"viability, T/C",[31],79.1%
same,"viability, T/C",[32],75.8%
same,"viability, T/C",[33],74.6%
same,"viability, T/C",[34],78.7%
same,"viability, T/C",[35],80.7%
same,"viability, T/C",[36],55.7%
